Data set [1] addresses T1, Cannabinoid receptor 2 (Homo sapiens, UniProt P34972). Briefly: Activity at hemagglutinin-tagged human CB2 receptor expressed in HEK293 cells assessed as increase in forskolin-induced cAMP accumulation in absence of CP55,940 by cAMP BRET assay. It counts as functional, cell-based.
Data set [2] deals with T1, Cannabinoid receptor 2. The experiment in a line: Allosteric agonist activity at hemagglutinin-tagged human CB2 receptor expressed in HEK293 cells assessed as effect on forskolin-induced cAMP accumulation at 10 uM by kinetic cAMP assay. It counts as functional, cell-based. For orientation: Cyclic AMP is a second messenger, typically raised through Gs and lowered through Gi signalling.

The target in data set [3] is T2, Cannabinoid receptor 1 (Homo sapiens, UniProt P21554). The experiment in a line: Activity at hemagglutinin-tagged human CB1 receptor expressed in HEK293 cells assessed as effect on forskolin-induced cAMP accumulation after 5 mins in presence of CP55,940 by cAMP BRET assay. It counts as functional, cell-based.
The target in data set [4] is T2, Cannabinoid receptor 1. Briefly: Inverse agonist activity at hemagglutinin-tagged human CB1 receptor expressed in HEK293 cells assessed as increase in forskolin-induced cAMP accumulation in absence of CP55,940 at 31.6 uM by cAMP BRET assay. It counts as functional, cell-based.
Data set [5] deals with T2, Cannabinoid receptor 1. The experiment in a line: Inverse agonist activity at hemagglutinin-tagged human CB1 receptor expressed in HEK293 cells assessed as effect on forskolin-induced cAMP accumulation after 5 to 15 mins in presence of CP55,940 by cAMP BRET assay. It counts as functional, cell-based.
Data set [6] deals with T2, Cannabinoid receptor 1. Briefly: Activity at human CB1 receptor expressed in AtT20 cells assessed as increase in rate of repolarization at 0.1 to 10 uM in presence of 1 uM CP55,940 by membrane potential assay. It counts as cell-based.
Data set [7] concerns the target T2, Cannabinoid receptor 1. Briefly: Allosteric agonist activity at hemagglutinin-tagged human CB1 receptor expressed in HEK293 cells assessed as effect on forskolin-induced cAMP accumulation at 10 uM by kinetic cAMP assay. It counts as functional, cell-based.
Data set [8] deals with T1, Cannabinoid receptor 2. Briefly: Allosteric modulator activity at hemagglutinin-tagged human CB2 receptor expressed in Flp-In-293 cells assessed as effect on CP55,940-induced inhibition of forskolin-induced cAMP accumulation by kinetic cAMP assay. It counts as functional, cell-based.
Data set [9] has as its target T2, Cannabinoid receptor 1. Briefly: Activity at human CB1 receptor expressed in AtT20 cells assessed as effect on 1 uM CP55,940-induced peak hyperpolarization up to 10 uM by membrane potential assay. The class given is cell-based.
In data set [10] the target is T2, Cannabinoid receptor 1. The experiment in a line: Activity at hemagglutinin-tagged human CB1 receptor expressed in HEK293 cells assessed as effect on forskolin-induced cAMP accumulation after 15 mins in presence of CP55,940 by cAMP BRET assay. The class given is functional, cell-based.
The target in data set [11] is T2, Cannabinoid receptor 1. The experiment in a line: Activity at hemagglutinin-tagged human CB1 receptor expressed in HEK293 cells assessed as effect on forskolin-induced cAMP accumulation after 10 mins in presence of CP55,940 by cAMP BRET assay. The class given is functional, cell-based.
In data set [12] the target is T2, Cannabinoid receptor 1. The experiment in a line: Allosteric modulator activity at hemagglutinin-tagged human CB1 receptor expressed in HEK293 cells assessed as effect on CP55,940-induced inhibition of forskolin-induced cAMP accumulation by kinetic cAMP assay. It counts as functional, cell-based.
In data set [13] the target is T2, Cannabinoid receptor 1. Briefly: Activity at hemagglutinin-tagged human CB1 receptor expressed in HEK293 cells assessed as effect on forskolin-induced cAMP accumulation in presence of CP55,940 by cAMP BRET assay. It counts as functional, cell-based.
In another data set the test system is HEK293. The experiment in a line: Reduction in cAMP accumulation in HEK293 cells by kinetic cAMP assay. The class given is ADME, cell-based. As to conditions: human.
The target in data set [14] is T1, Cannabinoid receptor 2. Briefly: Activity at hemagglutinin-tagged human CB2 receptor expressed in HEK293 cells assessed as inhibition of forskolin-induced cAMP accumulation in absence of CP55,940 by cAMP BRET assay. It counts as functional, cell-based.
In data set [15] the target is T2, Cannabinoid receptor 1. Briefly: Inverse agonist activity at hemagglutinin-tagged human CB1 receptor expressed in HEK293 cells assessed as increase in forskolin-induced cAMP accumulation in absence of CP55,940 at 10 uM and 31.6 uM by cAMP BRET assay. It counts as functional, cell-based.
Data set [16] deals with T2, Cannabinoid receptor 1. Briefly: Slow antagonist/Inverse agonist activity at hemagglutinin-tagged human CB1 receptor expressed in HEK293 cells assessed as reversal of 1 uM CP55,940-induced inhibition of 5 uM forskolin-induced cAMP accumulation by kinetic cAMP assay. The class given is functional, cell-based.
In data set [17] the target is T1, Cannabinoid receptor 2. Briefly: Antagonist activity against hemagglutinin-tagged human CB2 receptor expressed in HEK293 cells assessed as suppression of CP55,940-induced inhibition of forskolin-induced cAMP accumulation by cAMP BRET assay. The class given is functional, cell-based.

Calls of active or inactive are those of the source. No cut-off for these calls is given here.

A word on the EC50: it is the concentration that produces a half-maximal response.

T2 sequence (P21554 whole entry): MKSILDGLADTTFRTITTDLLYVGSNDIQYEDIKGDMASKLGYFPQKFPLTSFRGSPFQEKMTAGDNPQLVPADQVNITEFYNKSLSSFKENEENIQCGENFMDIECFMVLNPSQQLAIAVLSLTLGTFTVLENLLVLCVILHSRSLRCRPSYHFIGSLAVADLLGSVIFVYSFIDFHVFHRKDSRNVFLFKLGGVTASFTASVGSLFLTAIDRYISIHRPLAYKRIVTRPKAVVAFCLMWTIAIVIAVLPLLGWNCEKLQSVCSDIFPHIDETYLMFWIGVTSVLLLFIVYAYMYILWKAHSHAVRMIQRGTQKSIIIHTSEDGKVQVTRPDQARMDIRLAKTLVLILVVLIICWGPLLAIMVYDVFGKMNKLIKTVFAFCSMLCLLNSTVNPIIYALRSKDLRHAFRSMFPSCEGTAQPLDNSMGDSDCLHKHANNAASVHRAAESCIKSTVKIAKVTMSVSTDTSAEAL
T1 sequence (P34972 whole entry): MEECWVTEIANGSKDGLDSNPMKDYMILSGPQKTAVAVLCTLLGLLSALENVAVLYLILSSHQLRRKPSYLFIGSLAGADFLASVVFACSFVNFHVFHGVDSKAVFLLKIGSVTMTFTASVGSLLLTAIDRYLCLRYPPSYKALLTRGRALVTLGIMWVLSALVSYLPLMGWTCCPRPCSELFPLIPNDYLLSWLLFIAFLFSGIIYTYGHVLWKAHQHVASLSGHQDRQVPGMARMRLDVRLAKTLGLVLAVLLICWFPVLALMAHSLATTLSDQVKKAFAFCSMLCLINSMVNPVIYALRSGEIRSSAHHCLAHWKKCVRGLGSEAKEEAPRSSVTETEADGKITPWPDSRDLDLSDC

For `CCc1c(C(=O)NCCc2ccc(N3CCCCC3)cc2)[nH]c2ccccc12`, the outcome at Cannabinoid receptor 2 [1], on Cannabinoid receptor 2 [2], at Cannabinoid receptor 1 [4], on Cannabinoid receptor 1 [5], on Cannabinoid receptor 1 [6] and on Cannabinoid receptor 1 [7] was Active. In addition, the result at Cannabinoid receptor 1 [12] was Active. In addition, the EC50 at Cannabinoid receptor 1 [3] came out at 6.84 µM; at Cannabinoid receptor 1 [10], 3.55 µM; at Cannabinoid receptor 1 [11], 2.99 µM; at Cannabinoid receptor 1 [13], 4.01 µM. In addition, the result at Cannabinoid receptor 2 [8] and on Cannabinoid receptor 1 [9] was inactive.
Take `CCc1c(C(=O)NCCc2ccc(F)cc2)[nH]c2ccc(Cl)cc12`: the outcome on Cannabinoid receptor 2 [2], on Cannabinoid receptor 1 [7] and at Cannabinoid receptor 2 [8] was inactive. Moreover, the EC50 is 7.37 µM at Cannabinoid receptor 1 [3], 8.96 µM at Cannabinoid receptor 1 [10], 4.58 µM at Cannabinoid receptor 1 [11] and 4.99 µM on Cannabinoid receptor 1 [13]. Also, the result at Cannabinoid receptor 1 [5] and at Cannabinoid receptor 1 [12] was Active.
Take `CCc1c(C(=O)NCCc2ccc(N)cc2)[nH]c2ccc(Cl)cc12`: the outcome on Cannabinoid receptor 2 [2], on Cannabinoid receptor 1 [7] and at Cannabinoid receptor 2 [8] was Active. The Activity entry with HEK293 is “Toxic”. Further, at Cannabinoid receptor 1 [12], the result was inactive.
Turning to `CCc1c(C(=O)NCCc2ccc(Cl)cc2)[nH]c2ccc(Cl)cc12`, the result on Cannabinoid receptor 2 [2], on Cannabinoid receptor 1 [7], at Cannabinoid receptor 2 [8] and on Cannabinoid receptor 1 [9] was inactive. Moreover, the EC50 on Cannabinoid receptor 1 [3] is 8.18 µM; at Cannabinoid receptor 1 [10] it was 20 µM; on Cannabinoid receptor 1 [11], 1.84 µM; at Cannabinoid receptor 1 [13] it was 3.42 µM. Moreover, the result at Cannabinoid receptor 1 [5], at Cannabinoid receptor 1 [6] and at Cannabinoid receptor 1 [12] was Active.
Take `O=C(NCCc1ccc(Cl)cc1)c1cc2cc(Cl)ccc2[nH]1`: the outcome on Cannabinoid receptor 2 [2], on Cannabinoid receptor 1 [7], on Cannabinoid receptor 2 [8] and on Cannabinoid receptor 1 [12] was inactive.
For the compound `O=C(NCCc1ccc(N2CCCCC2)cc1)c1cc2cc(Cl)ccc2[nH]1`, the result on Cannabinoid receptor 2 [2], at Cannabinoid receptor 1 [7], at Cannabinoid receptor 2 [8] and on Cannabinoid receptor 1 [12] was inactive.
Turning to `CCc1c(C(=O)OCCc2ccc(N3CCCCC3)cc2)[nH]c2ccc(Cl)cc12`, the result at Cannabinoid receptor 2 [2] was Active. Also, the concentration for a half-maximal effect (EC50) on Cannabinoid receptor 2 [14] stood at 0.13 µM. Moreover, the outcome at Cannabinoid receptor 1 [7], at Cannabinoid receptor 2 [8] and on Cannabinoid receptor 1 [12] was inactive.
Consider `CCc1c(C(=O)NCCc2ccc(C)cc2)[nH]c2ccc(Cl)cc12`, for which the outcome on Cannabinoid receptor 2 [2], on Cannabinoid receptor 1 [7], at Cannabinoid receptor 2 [8] and at Cannabinoid receptor 1 [9] was inactive. The EC50 at Cannabinoid receptor 1 [3] amounted to 1.01 µM; on Cannabinoid receptor 1 [10] it was 0.47 µM; on Cannabinoid receptor 1 [11] it was 0.6 µM; at Cannabinoid receptor 1 [13], 0.79 µM. The outcome at Cannabinoid receptor 1 [5], on Cannabinoid receptor 1 [6] and on Cannabinoid receptor 1 [12] was Active.
As to `CC(O)c1c(C(=O)NCCc2ccc(N3CCCCC3)cc2)[nH]c2ccc(Cl)cc12` (centres undefined), the result on Cannabinoid receptor 2 [2] and at Cannabinoid receptor 2 [8] was inactive. Besides, the EC50 came to 13.4 µM on Cannabinoid receptor 1 [3], 1.51 µM at Cannabinoid receptor 1 [10], 2.97 µM at Cannabinoid receptor 1 [11] and 2.66 µM at Cannabinoid receptor 1 [13]. Further, the result on Cannabinoid receptor 1 [5], at Cannabinoid receptor 1 [15], on Cannabinoid receptor 1 [7] and on Cannabinoid receptor 1 [12] was Active.
Turning to `CCc1c(C(=O)NCCc2ccc(N3CCCCC3)cc2)[nH]c2ccc(Cl)cc12`, the outcome at Cannabinoid receptor 2 [2], at Cannabinoid receptor 2 [8] and at Cannabinoid receptor 1 [9] was inactive. For the same compound, the concentration giving a half-maximal response (EC50) on Cannabinoid receptor 1 [3] worked out at 10.6 µM; on Cannabinoid receptor 1 [10], 0.64 µM; at Cannabinoid receptor 1 [11] it was 2.09 µM; on Cannabinoid receptor 1 [13], 2.24 µM. Further, the outcome at Cannabinoid receptor 1 [5], at Cannabinoid receptor 1 [6], at Cannabinoid receptor 1 [15], on Cannabinoid receptor 1 [7] and on Cannabinoid receptor 1 [12] was Active.
As to `CCc1c(C(=O)NCCc2ccc(N3CCCC3)cc2)[nH]c2ccc(Cl)cc12`, the outcome on Cannabinoid receptor 2 [2], on Cannabinoid receptor 1 [7], on Cannabinoid receptor 2 [8] and on Cannabinoid receptor 1 [12] was inactive. The inhibition entry at Cannabinoid receptor 1 [16] was “Active”.
In the case of `O=C(NCCc1ccc([N+](=O)[O-])cc1)c1cc2cc(Cl)ccc2[nH]1`, the outcome on Cannabinoid receptor 2 [2], at Cannabinoid receptor 1 [7] and on Cannabinoid receptor 2 [8] was inactive. The outcome on Cannabinoid receptor 1 [12] was Active.
With `CCc1c(C(=O)OCCc2ccc(NC)cc2)[nH]c2ccc(Cl)cc12`, the result on Cannabinoid receptor 2 [2], at Cannabinoid receptor 1 [7] and on Cannabinoid receptor 2 [8] was inactive. For the same compound, the EC50 on Cannabinoid receptor 1 [3], on Cannabinoid receptor 1 [10], at Cannabinoid receptor 1 [11] (hek293) and at Cannabinoid receptor 1 [13] (hek293) was under 10 µM throughout. Further, at Cannabinoid receptor 1 [12], the outcome was Active.
With `CCc1c(C(=O)NCCc2ccc(N(C)C)cc2)[nH]c2ccc(Cl)cc12`, the result on Cannabinoid receptor 2 [2] and on Cannabinoid receptor 2 [8] was inactive. On Cannabinoid receptor 1 [16], the inhibition entry is “Active”. Also, the EC50 at Cannabinoid receptor 1 [3] was found to be 3.43 µM; at Cannabinoid receptor 1 [10], 0.21 µM; at Cannabinoid receptor 1 [11], 0.43 µM; on Cannabinoid receptor 1 [13], 0.6 µM. The outcome at Cannabinoid receptor 1 [5], at Cannabinoid receptor 1 [15], at Cannabinoid receptor 1 [7] and at Cannabinoid receptor 1 [12] was Active.
In the case of `CCc1c(C(=O)NCCc2ccc([N+](=O)[O-])cc2)[nH]c2ccc(Cl)cc12`, the result at Cannabinoid receptor 2 [2] was inactive. Besides, the inhibition result on Cannabinoid receptor 1 [16] and at Cannabinoid receptor 2 [17] was “Active” each time. Moreover, the EC50 at Cannabinoid receptor 1 [3] was 3.59 µM; on Cannabinoid receptor 1 [10], 0.44 µM; at Cannabinoid receptor 1 [11], 0.66 µM; on Cannabinoid receptor 1 [13] it was 1.14 µM. Moreover, the result on Cannabinoid receptor 1 [5], on Cannabinoid receptor 1 [15], on Cannabinoid receptor 1 [7], at Cannabinoid receptor 2 [8] and at Cannabinoid receptor 1 [12] was Active.

The values are drawn from ChEMBL document CHEMBL3588815, “Distinct Temporal Fingerprint for Cyclic Adenosine Monophosphate (cAMP) Signaling of Indole-2-carboxamides as Allosteric Modulators of the Cannabinoid Receptors” (J Med Chem, 2015).
